ChEMBL document CHEMBL1201862, “PubChem BioAssay data set” (2004)
Activity calls are given as the source filed them.

Legend:
[1] = target: T1, Kappa-type opioid receptor (Homo sapiens, UniProt P41145); format: functional
[2] = target: T1, Kappa-type opioid receptor; format: functional; remark: listed apart in the source
[3] = NIH-3T3 fibroblast cytotoxicity, dose response, cytotoxicity control, cell-based, fluorescence, Alamar Blue, secondary assay (AID 2327); format: functional;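 note: NIH-3T3 mouse fibroblasts cultured with fluconazole at 8 µg/mL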
[4] = target: T2, Replicative DNA helicase DnaB (Mycobacterium tuberculosis, UniProt P9WMR3); test: DnaB intein splicing inhibitors, dose response, biochemical, cell-free fluorescence (AID 449749); format: functional
T2 sequence (P9WMR3 whole entry): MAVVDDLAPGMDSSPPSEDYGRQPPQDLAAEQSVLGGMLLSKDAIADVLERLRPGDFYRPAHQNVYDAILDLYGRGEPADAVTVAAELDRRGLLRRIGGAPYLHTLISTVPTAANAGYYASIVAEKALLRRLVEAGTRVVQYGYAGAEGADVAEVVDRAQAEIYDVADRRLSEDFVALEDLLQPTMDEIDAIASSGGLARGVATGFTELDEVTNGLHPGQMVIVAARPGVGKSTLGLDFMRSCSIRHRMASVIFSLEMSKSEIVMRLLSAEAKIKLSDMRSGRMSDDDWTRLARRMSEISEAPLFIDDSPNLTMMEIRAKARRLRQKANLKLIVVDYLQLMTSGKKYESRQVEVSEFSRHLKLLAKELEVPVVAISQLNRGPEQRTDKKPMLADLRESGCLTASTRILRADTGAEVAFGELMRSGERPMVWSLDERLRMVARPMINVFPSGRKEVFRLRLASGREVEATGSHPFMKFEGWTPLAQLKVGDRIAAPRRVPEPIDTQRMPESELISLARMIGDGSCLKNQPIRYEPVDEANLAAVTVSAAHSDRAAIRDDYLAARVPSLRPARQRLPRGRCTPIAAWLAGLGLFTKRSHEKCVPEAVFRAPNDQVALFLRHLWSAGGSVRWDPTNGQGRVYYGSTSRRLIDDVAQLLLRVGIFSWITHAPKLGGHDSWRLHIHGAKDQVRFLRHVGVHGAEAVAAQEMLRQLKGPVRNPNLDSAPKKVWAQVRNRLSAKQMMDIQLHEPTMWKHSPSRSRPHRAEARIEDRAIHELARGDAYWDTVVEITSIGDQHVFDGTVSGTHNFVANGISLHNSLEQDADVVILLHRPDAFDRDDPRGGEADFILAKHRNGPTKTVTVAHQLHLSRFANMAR

CHO = test: cytotoxicity in TLR9-MyD88 CHO cells, dose response, cytotoxicity control for TLR9-MyD88 binding inhibitor project, cell-based, luminescence (AID 588339); format: functional, hamster; settings: Cricetulus griseus;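 note: CHO cells stably coexpressing TLR9 and MyD88 fusions from primary screen; compound exposure lasted 48 hours before viability readout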
[5] = target: T3, Delta-type opioid receptor (Homo sapiens, UniProt P41143); test: HTS Image-Based Screen for Agonists of the DOR Receptor. [Related pubchem assays (depositor defined):AID1777, AID1786, AID2133]; format: functional
T3 sequence (P41143 whole entry): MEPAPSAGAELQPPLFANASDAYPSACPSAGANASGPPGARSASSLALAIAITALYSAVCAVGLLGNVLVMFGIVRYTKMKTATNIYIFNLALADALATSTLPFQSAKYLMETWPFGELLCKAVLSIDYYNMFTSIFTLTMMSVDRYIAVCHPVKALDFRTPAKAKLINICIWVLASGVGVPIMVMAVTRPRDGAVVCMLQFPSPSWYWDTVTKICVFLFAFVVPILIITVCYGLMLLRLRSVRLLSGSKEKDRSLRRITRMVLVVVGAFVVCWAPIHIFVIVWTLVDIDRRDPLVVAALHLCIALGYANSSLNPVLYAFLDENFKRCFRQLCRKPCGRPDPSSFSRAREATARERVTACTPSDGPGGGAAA

[6] = target: T3, Delta-type opioid receptor; test: HTS Image-Based Screen for Antagonists of the DOR Receptor. [Related pubchem assays (depositor defined):AID1777, AID1785, AID1786, AID2133]; format: functional
Beta Lactamase = Beta Lactamase (Pseudomonas aeruginosa, UniProt Q932Y6); test: beta-lactamase reporter inhibitor potency, dose response, artefact control for TLR9-MyD88 binding inhibitor project, BLA reporter cells, FRET fluorescence (AID 588341); format: cell-based;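 note: cell based assay in CHO-K1 cells stably expressing beta-lactamase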
Beta Lactamase, sequence (Q932Y6 whole entry): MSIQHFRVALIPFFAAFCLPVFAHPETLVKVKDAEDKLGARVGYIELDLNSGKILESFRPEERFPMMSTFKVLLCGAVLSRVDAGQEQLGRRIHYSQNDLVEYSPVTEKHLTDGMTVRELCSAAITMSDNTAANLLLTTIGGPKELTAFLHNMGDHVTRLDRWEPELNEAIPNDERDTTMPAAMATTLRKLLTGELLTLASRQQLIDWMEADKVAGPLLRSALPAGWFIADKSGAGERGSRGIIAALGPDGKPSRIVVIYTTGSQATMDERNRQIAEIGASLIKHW

HeLa = test: Cytotoxicity counterscreen assay for transcriptional activators of heat shock protein 70 (Hsp70). [Related pubchem assays: 1203, 1252 ]; format: functional; settings: Homo sapiens;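 note: cells exposed to compound for 16 hours before readout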
Protein RecA = target: T4, Protein RecA (Mycobacterium tuberculosis, UniProt P9WHJ3); test: Fluorescence Cell-Free Homogeneous Dose Retest to Identify Inhibitors of RecA-Intein Splicing Activity. [Related pubchem assays (depositor defined):AID2097, AID2223, AID489010, AID492950]; format: functional
T4 sequence (P9WHJ3 whole entry): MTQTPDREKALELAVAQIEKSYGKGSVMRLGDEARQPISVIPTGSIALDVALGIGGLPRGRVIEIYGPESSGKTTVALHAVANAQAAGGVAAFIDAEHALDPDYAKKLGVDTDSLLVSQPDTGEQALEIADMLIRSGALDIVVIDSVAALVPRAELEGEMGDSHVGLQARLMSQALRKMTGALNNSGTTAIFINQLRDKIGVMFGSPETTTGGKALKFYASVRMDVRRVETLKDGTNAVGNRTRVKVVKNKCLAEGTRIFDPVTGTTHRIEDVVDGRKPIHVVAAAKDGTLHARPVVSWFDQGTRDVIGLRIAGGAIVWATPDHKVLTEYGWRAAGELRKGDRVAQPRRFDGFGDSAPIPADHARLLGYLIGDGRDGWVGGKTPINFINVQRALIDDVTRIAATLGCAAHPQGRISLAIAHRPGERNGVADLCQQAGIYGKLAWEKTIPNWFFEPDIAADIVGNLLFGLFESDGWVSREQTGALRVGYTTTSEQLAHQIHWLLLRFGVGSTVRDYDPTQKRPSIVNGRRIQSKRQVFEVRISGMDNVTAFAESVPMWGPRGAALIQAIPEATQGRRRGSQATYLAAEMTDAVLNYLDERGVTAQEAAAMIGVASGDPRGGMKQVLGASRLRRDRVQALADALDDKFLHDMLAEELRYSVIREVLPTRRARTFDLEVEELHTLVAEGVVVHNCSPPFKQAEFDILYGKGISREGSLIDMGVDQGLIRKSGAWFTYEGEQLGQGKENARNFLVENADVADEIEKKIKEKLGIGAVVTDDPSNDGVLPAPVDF

Mu-type opioid receptor = Mu-type opioid receptor (Homo sapiens, UniProt P35372); test: HTS Image-Based Screen for Agonists of the MOR Receptor. [Related pubchem assays (depositor defined):AID1777, AID1785, AID1786, AID2133]; format: functional;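 note: imaging of beta-arrestin GFP recruitment into spots after receptor activation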
Mu-type opioid receptor, sequence (P35372 whole entry): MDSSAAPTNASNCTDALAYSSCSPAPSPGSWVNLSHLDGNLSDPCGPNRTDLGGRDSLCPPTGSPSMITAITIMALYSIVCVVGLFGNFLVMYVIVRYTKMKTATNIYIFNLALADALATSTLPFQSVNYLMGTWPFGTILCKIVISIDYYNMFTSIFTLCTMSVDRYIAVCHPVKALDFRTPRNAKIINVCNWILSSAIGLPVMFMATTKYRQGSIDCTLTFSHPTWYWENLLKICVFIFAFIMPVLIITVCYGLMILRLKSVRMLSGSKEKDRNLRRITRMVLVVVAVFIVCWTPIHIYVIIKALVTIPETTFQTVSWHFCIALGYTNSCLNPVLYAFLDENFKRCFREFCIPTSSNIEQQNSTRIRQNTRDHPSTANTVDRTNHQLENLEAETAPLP

Beta-galactosidase = Beta-galactosidase (Escherichia coli, UniProt Q8VNN2); format: functional
Beta-galactosidase, sequence (Q8VNN2 whole entry): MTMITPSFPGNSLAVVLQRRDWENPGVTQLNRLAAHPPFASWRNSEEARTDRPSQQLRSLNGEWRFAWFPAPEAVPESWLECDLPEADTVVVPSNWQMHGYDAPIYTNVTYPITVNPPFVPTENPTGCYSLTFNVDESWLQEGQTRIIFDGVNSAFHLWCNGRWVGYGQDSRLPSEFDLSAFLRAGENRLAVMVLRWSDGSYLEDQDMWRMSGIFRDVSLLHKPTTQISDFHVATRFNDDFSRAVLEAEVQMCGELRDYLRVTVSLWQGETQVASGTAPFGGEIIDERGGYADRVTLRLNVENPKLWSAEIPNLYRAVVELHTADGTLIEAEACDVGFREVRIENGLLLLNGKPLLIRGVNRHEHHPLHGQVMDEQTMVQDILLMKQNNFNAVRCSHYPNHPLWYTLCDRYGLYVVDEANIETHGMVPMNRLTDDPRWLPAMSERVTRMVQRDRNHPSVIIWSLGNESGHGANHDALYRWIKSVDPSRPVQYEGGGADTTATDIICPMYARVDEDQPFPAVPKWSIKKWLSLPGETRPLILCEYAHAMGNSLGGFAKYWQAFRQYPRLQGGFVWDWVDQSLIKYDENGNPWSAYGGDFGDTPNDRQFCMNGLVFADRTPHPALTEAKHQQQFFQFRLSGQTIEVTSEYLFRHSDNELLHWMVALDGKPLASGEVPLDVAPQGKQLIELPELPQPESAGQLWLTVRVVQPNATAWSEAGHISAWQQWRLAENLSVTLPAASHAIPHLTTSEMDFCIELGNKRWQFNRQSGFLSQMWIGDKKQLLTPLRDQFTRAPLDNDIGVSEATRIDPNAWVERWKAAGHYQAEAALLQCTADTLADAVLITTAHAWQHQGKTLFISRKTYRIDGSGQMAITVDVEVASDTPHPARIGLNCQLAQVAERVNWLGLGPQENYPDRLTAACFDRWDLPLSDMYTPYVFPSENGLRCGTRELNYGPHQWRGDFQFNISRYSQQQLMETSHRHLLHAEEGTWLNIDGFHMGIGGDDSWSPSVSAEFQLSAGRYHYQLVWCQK

[7] = C. albicans growth with fluconazole, confirmation, fluorescence, retest (AID 2467); format: functional, cell-based
[8] = target: G-protein coupled receptor 55 (Homo sapiens, UniProt Q9Y2T6); test: GPR55 antagonists blocking LPI-driven arrestin recruitment, primary screen, imaging, U2OS, beta-arrestin-GFP, LPI agonist (AID 2013); format: functional;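 note: antagonist potency measured as reduced agonist-driven arrestin aggregation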
G-protein coupled receptor 55, sequence (Q9Y2T6 whole entry): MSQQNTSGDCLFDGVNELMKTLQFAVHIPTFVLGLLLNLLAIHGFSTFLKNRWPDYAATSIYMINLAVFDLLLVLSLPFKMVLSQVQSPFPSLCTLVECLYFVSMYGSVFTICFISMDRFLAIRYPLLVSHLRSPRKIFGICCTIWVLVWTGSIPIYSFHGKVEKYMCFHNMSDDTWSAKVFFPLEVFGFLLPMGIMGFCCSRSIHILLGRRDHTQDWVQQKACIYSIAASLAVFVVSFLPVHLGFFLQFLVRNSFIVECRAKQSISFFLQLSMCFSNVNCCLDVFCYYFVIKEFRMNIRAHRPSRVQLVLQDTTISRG

DNA topoisomerase = DNA topoisomerase (Yersinia pestis, UniProt A0A2S9PM60); test: Y. pestis Topo-I inhibitors, cleavage product readout, dose response, biochemical, cherry-pick (AID 588525)
DNA topoisomerase, sequence (A0A2S9PM60 whole entry): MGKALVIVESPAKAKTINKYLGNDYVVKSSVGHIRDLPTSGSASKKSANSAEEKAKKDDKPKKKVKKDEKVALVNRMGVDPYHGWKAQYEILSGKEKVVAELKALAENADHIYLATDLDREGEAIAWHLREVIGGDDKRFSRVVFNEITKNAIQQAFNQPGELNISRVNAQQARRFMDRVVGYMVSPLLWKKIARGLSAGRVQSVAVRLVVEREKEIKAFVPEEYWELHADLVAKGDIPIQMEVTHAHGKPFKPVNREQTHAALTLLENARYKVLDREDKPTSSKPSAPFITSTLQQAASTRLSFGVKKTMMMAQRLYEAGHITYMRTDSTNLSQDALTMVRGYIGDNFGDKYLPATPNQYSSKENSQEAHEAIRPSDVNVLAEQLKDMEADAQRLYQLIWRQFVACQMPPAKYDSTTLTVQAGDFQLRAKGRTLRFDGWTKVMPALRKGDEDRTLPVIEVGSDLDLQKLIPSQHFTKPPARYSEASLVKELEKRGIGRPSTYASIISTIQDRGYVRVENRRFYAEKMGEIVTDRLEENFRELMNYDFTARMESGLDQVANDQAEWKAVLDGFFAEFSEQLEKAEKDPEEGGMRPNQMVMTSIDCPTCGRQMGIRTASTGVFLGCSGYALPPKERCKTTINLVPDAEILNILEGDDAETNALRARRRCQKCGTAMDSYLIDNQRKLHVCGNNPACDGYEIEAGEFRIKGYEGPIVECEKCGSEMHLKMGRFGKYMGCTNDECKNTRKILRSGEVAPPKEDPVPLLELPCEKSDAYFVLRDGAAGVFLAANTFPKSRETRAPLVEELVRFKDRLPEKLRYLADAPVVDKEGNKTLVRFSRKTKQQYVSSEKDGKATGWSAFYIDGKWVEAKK

INS1 = test: beta cell apoptosis inhibitors, cytokine rescue, dose response, luminescence, retest (AID 449756); format: functional, cell-based; settings: Rattus norvegicus;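 note: cell death triggered by IL-1 beta plus TNF-alpha plus IFN-gamma mixture; protective hits raise ATP signal compared with cytokine alone wells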
BJ [9] = test: cytotoxicity toward Ras-transformed BJeLR fibroblasts, dose response, cell-based, alamar blue fluorescence, cherrypicked samples (AID 2631); format: functional; settings: Homo sapiens;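 note: confirmatory dose-response assay in RAS-dependent BJ fibroblasts engineered with TERT, LT and ST, with cytotoxicity read by fluorescence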
BJ [10] = test: cells; format: functional, cell-based; settings: Homo sapiens
Paired box protein Pax-8 = Paired box protein Pax-8 (Homo sapiens, UniProt Q06710); test: inhibitors of PAX8-driven TPO luciferase reporter, dose response, RMG-I cells, cherry-pick (AID 687027); format: functional, cell-based;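 note: luciferase reporter driven by Pax8 target thyroperoxidase promoter measured by SteadyGlo luminescence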
Paired box protein Pax-8, sequence (Q06710 whole entry): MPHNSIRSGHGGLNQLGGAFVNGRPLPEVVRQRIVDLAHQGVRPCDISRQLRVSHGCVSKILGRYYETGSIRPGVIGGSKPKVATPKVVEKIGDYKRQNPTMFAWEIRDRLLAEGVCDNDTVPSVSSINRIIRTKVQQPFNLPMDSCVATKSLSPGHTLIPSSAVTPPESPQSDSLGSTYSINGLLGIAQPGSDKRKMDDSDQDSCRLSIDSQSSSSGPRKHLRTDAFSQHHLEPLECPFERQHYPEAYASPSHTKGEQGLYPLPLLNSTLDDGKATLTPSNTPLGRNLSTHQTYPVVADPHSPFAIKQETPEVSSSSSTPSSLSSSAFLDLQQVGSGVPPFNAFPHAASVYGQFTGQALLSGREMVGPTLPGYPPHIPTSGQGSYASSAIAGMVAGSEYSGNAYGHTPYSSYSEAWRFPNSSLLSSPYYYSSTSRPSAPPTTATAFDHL

BJ [11] = test: cytotoxicity toward BJ-TERT-LT-ST fibroblasts, dose response, cell-based, RAS-independent, luminescence (AID 1935); format: functional; settings: Homo sapiens;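 note: BJ fibroblasts immortalized with TERT plus LT and ST oncogenes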
cells = format: functional, cell-based; settings: HEK-CNG
BJ [12] = test: cytotoxicity toward BJ-TERT fibroblasts, dose response, cell-based, RAS-independent, luminescence (AID 1933); format: functional; settings: Homo sapiens
[13] = cytotoxicity toward DRD oncogenic fibroblasts, dose response, cell-based, non-viral oncogenic, luminescence (AID 1934); format: functional; settings: Homo sapiens
HEK293 = test: inhibitors of LMP1-driven NF-kB reporter, dose response, cell-based, HEK293, luciferase, cherry-pick (AID 588343); format: functional; settings: Homo sapiens
Galanin receptor type 3 = Galanin receptor type 3 (Homo sapiens, UniProt O60755); test: Fluorescence-based cell-based primary high throughput dose response assay to identify antagonists of the Galanin Receptor 3 (GalR3).; format: functional
Galanin receptor type 3, sequence (O60755 whole entry): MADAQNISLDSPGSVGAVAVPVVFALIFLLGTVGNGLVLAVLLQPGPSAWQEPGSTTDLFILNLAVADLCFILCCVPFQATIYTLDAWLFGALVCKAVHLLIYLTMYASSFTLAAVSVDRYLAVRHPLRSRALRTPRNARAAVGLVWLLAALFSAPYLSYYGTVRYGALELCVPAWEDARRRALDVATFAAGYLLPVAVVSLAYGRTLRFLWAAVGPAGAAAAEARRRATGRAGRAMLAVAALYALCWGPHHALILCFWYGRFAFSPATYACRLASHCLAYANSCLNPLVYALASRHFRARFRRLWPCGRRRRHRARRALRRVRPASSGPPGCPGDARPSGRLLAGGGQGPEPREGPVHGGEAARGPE

[14] = target: T5, Endoribonuclease toxin MazF (Escherichia coli K-12, UniProt P0AE70); test: MazF toxin RNase activators, dose response, biochemical, fluorescence, single-stranded RNA substrate, uHTS hits (AID 588481); format: functional
T5 sequence (P0AE70 whole entry): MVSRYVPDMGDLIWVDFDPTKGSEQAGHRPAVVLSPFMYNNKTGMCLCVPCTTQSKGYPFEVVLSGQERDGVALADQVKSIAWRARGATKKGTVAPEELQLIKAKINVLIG

[15] = target: T5, Endoribonuclease toxin MazF; test: fluorescent RNA oligo signal without MazF, dose response, counter-screen for MazEF activator project, biochemical, fluorescence, single-stranded RNase substrate (AID 588502); format: functional
[16] = target: T5, Endoribonuclease toxin MazF; test: SAR analysis of small molecule activators of the MazEF TA System via a fluorescence-based single-stranded RNase assay counterscreen. [Related pubchem assays (depositor defined):AID504720, AID504743]; format: functional
[17] = target: T5, Endoribonuclease toxin MazF; test: MazF endoribonuclease activators, SAR follow-up, biochemical, fluorescence, single-stranded RNA substrate (AID 588603); format: functional
MEF = test: SAR analysis of small molecule cytotoxicity of MazEF TA System activators in embryonic fibroblast (MEF) cells. [Related pubchem assays (depositor defined):AID504720, AID504743]; format: functional; settings: Mus musculus

T1 sequence (P41145 whole entry): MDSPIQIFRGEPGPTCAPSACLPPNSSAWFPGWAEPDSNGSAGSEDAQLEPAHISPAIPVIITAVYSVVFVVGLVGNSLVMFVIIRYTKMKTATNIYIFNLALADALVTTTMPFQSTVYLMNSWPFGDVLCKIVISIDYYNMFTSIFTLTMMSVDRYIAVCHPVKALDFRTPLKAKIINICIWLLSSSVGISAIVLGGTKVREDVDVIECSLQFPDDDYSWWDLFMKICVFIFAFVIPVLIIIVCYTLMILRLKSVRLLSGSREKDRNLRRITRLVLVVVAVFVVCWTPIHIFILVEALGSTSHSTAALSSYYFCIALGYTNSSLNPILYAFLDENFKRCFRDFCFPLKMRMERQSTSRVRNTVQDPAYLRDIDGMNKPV

CNc1cc(Cl)c2nonc2c1[N+](=O)[O-]
IC50 [1]: 2.96 µM (active) | IC50 [2]: 8.48 µM | EC50 [3]: 4.78 µM (inconclusive) | AC50 [4]: 5.31 µM (active) | IC50 (CHO): 1.68 µM (active) | EC50 [5]: > 32 µM (inactive) | IC50 [6]: 10.4 µM (inactive) | IC50 (Beta Lactamase): 4.73 µM (active) | CC50 (HeLa): > 1.22 µM (active) | EC50 (Protein RecA): 1.77 µM (active) | EC50 (Mu-type opioid receptor): > 32 µM (inactive) | EC50 (Beta-galactosidase): > 31.5 µM (inactive) | EC50 [7]: 0.752 µM (active) | IC50 [8]: 1.11 µM (active)

Cc1c(C(=O)OCC(=O)N(CC(C)C)c2c(N)n(Cc3ccccc3)c(=O)[nH]c2=O)oc2ccccc12
AC50 (DNA topoisomerase): 9.46 µM (active)

N#CC(C#N)=NNc1ccc(-n2ccc(C(F)(F)F)n2)cc1
AC50 (INS1): 5.57 µM (active) | EC50 (BJ [9]): > 133 µM (inactive) | EC50 (BJ [10]): 11.4 µM (active) | AC50 (Paired box protein Pax-8): 3.44 µM (active) | AC50 [4]: 2.03 µM (active) | EC50 (BJ [11]): > 150 µM (not active) | EC50 (cells): > 29.9 µM (inactive) | EC50 (BJ [12]): 13.6 µM (inconclusive) | EC50 [13]: 18.2 µM (inconclusive) | AC50 (HEK293): 3.38 µM (active) | EC50 (Protein RecA): 2.98 µM (active) | IC50 (Galanin receptor type 3): > 1.11 µM (active)

CN1C(=O)C(C)(C)c2cc(S(=O)(=O)NCc3ccc(C(=O)NCc4ccco4)cc3)ccc21
EC50 [14]: 7.01 µM (active) | EC50 [15]: 29.2 µM (inactive) | EC50 [16]: > 99 µM (inactive) | EC50 [17]: 3.35 µM (active) | CC50 (MEF): > 99 µM (inactive)
